The values below come from patent US6943022B2, “Inhibition of apoptosis by the expression of antisense RNA of caspase-3” (Korea Advanced Institute of Science and Technology, priority 2001, dated 2005).

Series [1] deals with recombinant CHO cells. Format: cell-based. The method, then:
The present inventors confirmed whether the expression of antisense RNA of caspase-3 could inhibit the NaBu-induced apoptosis. Particularly, control cells and B3 cells obtained in Example <1-1> were seeded at a concentration of 4×10^4 cells/ml in 6-well culture plates containing 5 ml of an alpha-minimum essential medium supplemented with 5% dialyzed fetal bovine serum and 0.32 μM of methotrexate. After three days of cultivation, the spent medium was replaced with fresh medium containing 0-5 mM of sodium butyrate. Cells were harvested periodically. Viable cells were distinguished from dead cells using the trypan blue dye exclusion method to determine cell viability. In addition, secreted humanized antibody concentration was measured by enzyme-linked immunosorbent assay (ELISA).

Series [2] concerns recombinant CHO cells. Put plainly: LDH activity in culture supernatant (degree of cell lysis) after sodium butyrate. Format: cell-based. Particulars: control cells, first two days after addition of 5 mM sodium butyrate. The source says:
The integrity of protein product is influenced by the degree of cell lysis because some proteolytic enzymes and glycosidases released from the cellular membrane ruptured-dead cells influence the molecular integrity of the product (Goldman, et al., 1997, Cytotechnology, 23, 103-111; Hansen, et al., 1997, Cytotechnology, 24, 227-234; Teige, et al., 1994, J. Biotechnol., 34, 101-105). The amount of lysed cells can be determined by measuring the amount of lactate dehydrogenase (LDH) released into the culture supernatant (Cruz, et al., 2000, Biotechnol. Lett., 22, 677-682). Thus, to determine the degree of cell lysis, the LDH activity in culture supernatant was measured daily after treatment with 5 mM of sodium butyrate.

Turning to `CCCC(=O)[O-].[Na+]` [sodium butyrate], the “cytotoxic effect on the cell growth” value in the series with recombinant CHO cells [1] (0-5 mM sodium butyrate, control and B3 CHO cells) was “dose-dependent”. For the same compound, in the series with recombinant CHO cells [1] (5 mM sodium butyrate), the cellular apoptosis entry was “induced”. In the series with recombinant CHO cells [1] (three days after treatment with 5 mM sodium butyrate, control cells (null pcDNA3.1-zeo(+))), the “viability of control cells” value is “under 50%”. Further, in the series on recombinant CHO cells [2], the “LDH activity in culture supernatant” value is listed as “increased rapidly”.
